The record followed here is the supplement of paper PMC11208160.
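Note: IS621 recombinase and bridge RNA in Escherichia coli cells.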

This data set can be described thus: recombinant barcode read abundance after kanamycin selection (control-corrected) (log10(CPM+1)); higher = more efficient recombination; sequences stand for … in AGTGCAGAGAAAATCGGCCAGTTTTCTCTGCCTGCAGTCCGCATGCCGT…AGATTTATGCAGCGGACTGCCTTTCTCCCAAAGTGATAAACCGGACAGTATCATGGACCGGTTTTCCCGGTAATCCGTATTTGCAAGGTTGGTTTCACT; site = the 11-nt target. The gist of the method: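 Values are log10(CPM+1) from a pooled E. coli screen of targets paired with IS621 bridge RNA target-binding loops. Recombination efficiency here means counts per million of recombinant-junction barcodes, averaged and control-corrected. Plates were chloramphenicol/ampicillin LB agar for the control and chloramphenicol/ampicillin/kanamycin with 0.1 mM IPTG, two replicates each.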
With “AGGTCCGCTTGGGTTCTAACCTGTTGCTA (site AGGTCCGCTTA)”, the “recombinant barcode read abundance (log10)” value was determined as 1.4. Consider “AGGTCCGCTTGGGTTCTAACCTGTTGCTA (site CACCAGCCTAT)”, for which the “recombinant barcode read abundance (log10)” value amounted to 0.026. With “AGGTCCTCTTGGGTTCTAACCTGTTGCAT (site AGGTCCTCTAA)”, the “recombinant barcode read abundance (log10)” value came out at 0.282. As for “AGGTCCTCTTGGGTTCTAACCTGTTGCAT (site AGGTCCTCTAC)”, the figure is 0.0867. In the case of “AGGTCCTCTTGGGTTCTAACCTGTTGCAT (site AGGTCCTCTAG)” it was 0.707; in that of “AGGTCCTCTTGGGTTCTAACCTGTTGCAT (site AGGTCCTCTAT)”, 2.24. With “AGGTCCTCTTGGGTTCTAACCTGTTGCTA (site AGGTCCTCTTA)”, the “recombinant barcode read abundance (log10)” value is 1.96. As for “AGGTCCTCTTGGGTTCTAACCTGTTGCTA (site TGATCCTCTTA)”, the “recombinant barcode read abundance (log10)” value amounted to 0.0783. For “AGGTGCTCTTGGGTTCTAACCTGTTGCCT (site AAGTGCTCTAG)”, the “recombinant barcode read abundance (log10)” value came to 0.0629. In the case of “AGGTGCTCTTGGGTTCTAACCTGTTGCCT (site ACGTGCTCTAG)”, the “recombinant barcode read abundance (log10)” value was 0.179.

With “AGGTGCTCTTGGGTTCTAACCTGTTGCCT (site AGGTGCTCTAG)”, the “recombinant barcode read abundance (log10)” value was determined as 1.6. Turning to “AGGTGCTCTTGGGTTCTAACCTGTTGCCT (site ATGTGCTCTAG)”, the “recombinant barcode read abundance (log10)” value stood at 0.107. Turning to “AGGTGTCCTTGGGTTCTAACCTGTTGCTT (site AGGTGTCCTAA)”, the “recombinant barcode read abundance (log10)” value was 1.4.

With “AGGTGTCCTTGGGTTCTAACCTGTTGCTT (site CGGTGTCCTAA)”, the “recombinant barcode read abundance (log10)” value turned out to be 0.0102.

Consider “AGGTTAGCTTGGGTTCTAACCTGTTGCTA (site AGGTTAGCTTA)”, for which the “recombinant barcode read abundance (log10)” value is 0.0546. Consider “AGGTTAGCTTGGGTTCTAACCTGTTGCTA (site GCAAGTACTCT)”, for which the “recombinant barcode read abundance (log10)” value was determined as 0.538.

For “AGTAACCCTTGGGTTCTAACCTGTTGCCT (site AATAACCCTAG)”, the “recombinant barcode read abundance (log10)” value is 0.0627. Consider “AGTAACCCTTGGGTTCTAACCTGTTGCCT (site ACTAACCCTAG)”, for which the “recombinant barcode read abundance (log10)” value came out at 0.158. With “AGTAACCCTTGGGTTCTAACCTGTTGCCT (site AGTAACCCTAG)”, the “recombinant barcode read abundance (log10)” value turned out to be 1.22. Take “AGTAACCCTTGGGTTCTAACCTGTTGCCT (site ATTAACCCTAG)”: the “recombinant barcode read abundance (log10)” value was determined as 0.137. As for “AGTAAGACTTGGGTTCTAACCTGTTGCAT (site AGTAAGACTAA)”, the figure is 0.197. Regarding “AGTAAGACTTGGGTTCTAACCTGTTGCAT (site AGTAAGACTAC)”, the “recombinant barcode read abundance (log10)” value worked out at 0.0256. As to “AGTAAGACTTGGGTTCTAACCTGTTGCAT (site AGTAAGACTAG)”, the “recombinant barcode read abundance (log10)” value amounted to 0.423.

For the sequence “AGTAAGACTTGGGTTCTAACCTGTTGCAT (site AGTAAGACTAT)”, the “recombinant barcode read abundance (log10)” value is 1.41. Turning to “AGTAAGCCTTGGGTTCTAACCTGTTGCAG (site ACTAAGCCTCC)”, the “recombinant barcode read abundance (log10)” value amounted to 0.133. Take “AGTAAGCCTTGGGTTCTAACCTGTTGCAG (site AGTAAGCCTCT)”: the “recombinant barcode read abundance (log10)” value was 1.12. In the case of “AGTAAGCCTTGGGTTCTAACCTGTTGCCT (site AGTAAGCCTAG)”, the “recombinant barcode read abundance (log10)” value came to 0.864. In the case of “AGTAAGCCTTGGGTTCTAACCTGTTGCCT (site AGTCAGCCTAG)” it was 0.243; in that of “AGTAAGCCTTGGGTTCTAACCTGTTGCCT (site AGTGAGCCTAG)”, 0.187.

As for “AGTAAGCCTTGGGTTCTAACCTGTTGCCT (site AGTTAGCCTAG)”, the “recombinant barcode read abundance (log10)” value turned out to be 0.173. In the case of “AGTACGTCTTGGGTTCTAACCTGTTGCTT (site AGTACGTCTAA)”, the “recombinant barcode read abundance (log10)” value came to 0.201.

Regarding “AGTACGTCTTGGGTTCTAACCTGTTGCTT (site GTTACGTCTAA)”, the “recombinant barcode read abundance (log10)” value was 0.0179. As for “AGTACTCCTTGGGTTCTAACCTGTTGCTG (site AATACTACTCA)”, the figure is 0.085; as for “AGTACTCCTTGGGTTCTAACCTGTTGCTG (site AGTACTCCTCA)”, 0.172. Consider “AGTATAACTTGGGTTCTAACCTGTTGCTG (site AGTATAACTCA)”, for which the “recombinant barcode read abundance (log10)” value worked out at 0.24. On to “AGTATAACTTGGGTTCTAACCTGTTGCTG (site GTGTACCCTGT)”, for which the “recombinant barcode read abundance (log10)” value came out at 0.178. Turning to “AGTCATTCTTGGGTTCTAACCTGTTGCAT (site AGTCAGTCTAC)”, the “recombinant barcode read abundance (log10)” value was found to be 0.166. In the case of “AGTCATTCTTGGGTTCTAACCTGTTGCAT (site AGTCATTCTAT)” it was 0.45; in that of “AGTCCCGCTTGGGTTCTAACCTGTTGCCA (site AGTCCCGCTTG)”, 1.67; in that of “AGTCCCGCTTGGGTTCTAACCTGTTGCCA (site GCATATACTAC)”, 0.212.

For “AGTCCTACTTGGGTTCTAACCTGTTGCAG (site AGGCTTACTCT)”, the “recombinant barcode read abundance (log10)” value was 0.234.

As to “AGTCCTACTTGGGTTCTAACCTGTTGCAG (site AGTCCTACTCT)”, the “recombinant barcode read abundance (log10)” value was 0.794.

With “AGTCGGACTTGGGTTCTAACCTGTTGCAC (site AGTCGGACTGT)”, the “recombinant barcode read abundance (log10)” value was found to be 0.846. As for “AGTCGGACTTGGGTTCTAACCTGTTGCAC (site CACGATCCTAA)”, the figure is 0.0668; as for “AGTCTCGCTTGGGTTCTAACCTGTTGCGG (site AGTATCGCTCC)”, 0.0167.

Take “AGTCTCGCTTGGGTTCTAACCTGTTGCGG (site AGTCTCGCTCC)”: the “recombinant barcode read abundance (log10)” value is 0.345. On to “AGTCTCGCTTGGGTTCTAACCTGTTGCGG (site AGTGTCGCTCC)”, for which the “recombinant barcode read abundance (log10)” value was found to be 0.0171. Regarding “AGTCTCGCTTGGGTTCTAACCTGTTGCGG (site AGTTTCGCTCC)”, the “recombinant barcode read abundance (log10)” value was 0.0153. “AGTCTCTCTTGGGTTCTAACCTGTTGCCT (site AGTCTCTCTAG)”: the “recombinant barcode read abundance (log10)” value stood at 0.688.

“AGTCTCTCTTGGGTTCTAACCTGTTGCCT (site AGTGACTCTAG)”: the “recombinant barcode read abundance (log10)” value came out at 0.0251.

In the case of “AGTCTCTCTTGGGTTCTAACCTGTTGCTA (site AGTCTCTCTCG)”, the “recombinant barcode read abundance (log10)” value was 0.128. As for “AGTCTCTCTTGGGTTCTAACCTGTTGCTA (site AGTCTCTCTTA)”, the figure is 1.21. In the case of “AGTGAAGCTTGGGTTCTAACCTGTTGCAC (site AGTGAAGCTGT)” it was 2.33. Take “AGTGAAGCTTGGGTTCTAACCTGTTGCAC (site CACTTCCCTTC)”: the “recombinant barcode read abundance (log10)” value came out at 0.298. In the case of “AGTGAGCCTTGGGTTCTAACCTGTTGCCT (site AGTAAGCCTAG)” it was 0.344; in that of “AGTGAGCCTTGGGTTCTAACCTGTTGCCT (site AGTCAGCCTAG)”, 0.0584.

“AGTGAGCCTTGGGTTCTAACCTGTTGCCT (site AGTGAGCCTAG)”: the “recombinant barcode read abundance (log10)” value amounted to 1.26. For the sequence “AGTGAGCCTTGGGTTCTAACCTGTTGCCT (site AGTTAGCCTAG)”, the “recombinant barcode read abundance (log10)” value turned out to be 0.0633. With “AGTGGACCTTGGGTTCTAACCTGTTGCCC (site AGTGGACCTGG)”, the “recombinant barcode read abundance (log10)” value is 1.86. Take “AGTGGACCTTGGGTTCTAACCTGTTGCCC (site TCCCATACTAT)”: the “recombinant barcode read abundance (log10)” value came out at 0.0634. In the case of “AGTGGAGCTTGGGTTCTAACCTGTTGCCT (site AGGGGATCTAG)”, the “recombinant barcode read abundance (log10)” value was found to be 0.0601. For “AGTGGAGCTTGGGTTCTAACCTGTTGCCT (site AGTGGAGCTAG)”, the “recombinant barcode read abundance (log10)” value was found to be 2.27. In the case of “AGTGGGACTTGGGTTCTAACCTGTTGCCA (site AGTGGGACTTG)” it was 1.56; in that of “AGTGGGACTTGGGTTCTAACCTGTTGCCA (site GGTGAGACTTG)”, 0.0594. As to “AGTTAGTCTTGGGTTCTAACCTGTTGCCA (site AGTCAGTCTTG)”, the “recombinant barcode read abundance (log10)” value worked out at 0.0961.

“AGTTAGTCTTGGGTTCTAACCTGTTGCCA (site AGTTAGTCTTG)”: the “recombinant barcode read abundance (log10)” value is 0.0604. In the case of “AGTTCGACTTGGGTTCTAACCTGTTGCCT (site AATTCGACTAG)”, the “recombinant barcode read abundance (log10)” value is 0.0143. In the case of “AGTTCGACTTGGGTTCTAACCTGTTGCCT (site ACTTCGACTAG)”, the “recombinant barcode read abundance (log10)” value turned out to be 0.0163. Turning to “AGTTCGACTTGGGTTCTAACCTGTTGCCT (site AGTTCGACTAG)”, the “recombinant barcode read abundance (log10)” value worked out at 0.429. With “AGTTCGACTTGGGTTCTAACCTGTTGCCT (site ATTTCGACTAG)”, the “recombinant barcode read abundance (log10)” value was determined as 0.234. As to “AGTTCGCCTTGGGTTCTAACCTGTTGCTA (site AGTGCGCCTTA)”, the “recombinant barcode read abundance (log10)” value amounted to 0.317.

Take “AGTTCGCCTTGGGTTCTAACCTGTTGCTA (site AGTTCGCCTTA)”: the “recombinant barcode read abundance (log10)” value came to 0.012.

As to “AGTTGGCCTTGGGTTCTAACCTGTTGCAG (site AGTTGGCCTCT)”, the “recombinant barcode read abundance (log10)” value was 0.39.

With “AGTTGGCCTTGGGTTCTAACCTGTTGCAG (site CTAACTACTAA)”, the “recombinant barcode read abundance (log10)” value was 0.313. Consider “AGTTGGGCTTGGGTTCTAACCTGTTGCTG (site AGCTGGGCTCC)”, for which the “recombinant barcode read abundance (log10)” value amounted to 0.154.

As to “AGTTGGGCTTGGGTTCTAACCTGTTGCTG (site AGTTGGGCTCA)”, the “recombinant barcode read abundance (log10)” value was determined as 1.02. On to “ATAAAACCTTGGGTTCTAACCTGTTGCCT (site ATAAAACCTAG)”, for which the “recombinant barcode read abundance (log10)” value worked out at 1.23.
